Assay results from ChEMBL document CHEMBL1201862, “PubChem BioAssay data set” (2004).
Calls of active or inactive are those of the source.

Experiments:
Leucine aminopeptidase = biological target: T1, Leucine aminopeptidase (Plasmodium falciparum 3D7, UniProt Q8IL11); assay: P. falciparum M17LAP inhibitors, primary screen, biochemical, fluorogenic H-Leu-NHMec substrate, 1536-well (AID 1619); assay type: functional
T1 sequence (Q8IL11 whole entry): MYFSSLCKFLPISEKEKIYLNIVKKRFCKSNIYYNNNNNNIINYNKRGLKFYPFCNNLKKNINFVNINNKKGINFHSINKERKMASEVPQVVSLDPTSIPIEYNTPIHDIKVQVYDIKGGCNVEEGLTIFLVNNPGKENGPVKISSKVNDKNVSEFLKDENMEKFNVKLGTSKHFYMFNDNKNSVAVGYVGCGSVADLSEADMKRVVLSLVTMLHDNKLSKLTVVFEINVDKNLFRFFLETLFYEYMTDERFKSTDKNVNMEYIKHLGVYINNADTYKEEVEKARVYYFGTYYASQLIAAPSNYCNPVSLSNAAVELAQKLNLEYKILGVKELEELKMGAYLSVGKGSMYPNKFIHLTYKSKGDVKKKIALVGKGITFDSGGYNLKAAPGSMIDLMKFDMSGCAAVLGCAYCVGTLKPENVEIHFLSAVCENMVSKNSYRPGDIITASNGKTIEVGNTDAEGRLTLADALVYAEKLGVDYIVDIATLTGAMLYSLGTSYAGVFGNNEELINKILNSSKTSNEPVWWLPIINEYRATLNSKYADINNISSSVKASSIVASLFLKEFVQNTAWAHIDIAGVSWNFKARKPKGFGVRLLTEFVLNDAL

[1] = IGROV1 ovarian cancer cell cytotoxicity, dose response, PAX8 inhibitor project, plate reader, dry powder samples (AID 743043); assay type: functional, cell-based; settings: IGROV-1
Paired box protein Pax-8 = Paired box protein Pax-8 (Homo sapiens, UniProt Q06710); assay: inhibitors of PAX8-driven TPO luciferase reporter, dose response, RMG-I cells, cherry-pick (AID 687027); assay type: functional, cell-based;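 also: luciferase reporter driven by Pax8 target thyroperoxidase promoter measured by SteadyGlo luminescence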
[2] = biological target: T2, DNA repair protein RAD52 homolog (Homo sapiens, UniProt P43351); assay type: functional, biochemical
T2 sequence (P43351 whole entry): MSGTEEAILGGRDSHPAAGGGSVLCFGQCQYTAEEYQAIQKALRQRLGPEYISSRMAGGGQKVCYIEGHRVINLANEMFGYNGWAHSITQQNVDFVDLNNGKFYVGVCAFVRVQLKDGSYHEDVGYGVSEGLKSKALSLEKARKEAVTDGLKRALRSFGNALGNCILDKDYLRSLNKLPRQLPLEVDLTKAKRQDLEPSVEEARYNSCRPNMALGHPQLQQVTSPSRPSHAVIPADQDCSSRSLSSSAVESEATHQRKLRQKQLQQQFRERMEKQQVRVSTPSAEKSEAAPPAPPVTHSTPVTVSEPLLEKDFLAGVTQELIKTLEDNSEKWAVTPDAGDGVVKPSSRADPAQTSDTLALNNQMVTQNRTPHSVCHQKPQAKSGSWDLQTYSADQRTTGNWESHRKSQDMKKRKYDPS

Cytochrome P450 2C19 = Cytochrome P450 2C19 (Homo sapiens, UniProt P33261); assay: Cytochrome panel assay with activity outcomes. Panel member name: p450-cyp2c19 Compounds with AC50 equal or less than 10 uM are considered active; assay type: functional; settings: read-out: AC50
Cytochrome P450 2C9 = Cytochrome P450 2C9 (Homo sapiens, UniProt P11712)
Cytochrome P450 1A2 = biological target: T3, Cytochrome P450 1A2 (Homo sapiens, UniProt P05177);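 also: PubChem cytochrome P450 panel assay, CYP1A2 panel member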
T3 sequence (P05177 whole entry): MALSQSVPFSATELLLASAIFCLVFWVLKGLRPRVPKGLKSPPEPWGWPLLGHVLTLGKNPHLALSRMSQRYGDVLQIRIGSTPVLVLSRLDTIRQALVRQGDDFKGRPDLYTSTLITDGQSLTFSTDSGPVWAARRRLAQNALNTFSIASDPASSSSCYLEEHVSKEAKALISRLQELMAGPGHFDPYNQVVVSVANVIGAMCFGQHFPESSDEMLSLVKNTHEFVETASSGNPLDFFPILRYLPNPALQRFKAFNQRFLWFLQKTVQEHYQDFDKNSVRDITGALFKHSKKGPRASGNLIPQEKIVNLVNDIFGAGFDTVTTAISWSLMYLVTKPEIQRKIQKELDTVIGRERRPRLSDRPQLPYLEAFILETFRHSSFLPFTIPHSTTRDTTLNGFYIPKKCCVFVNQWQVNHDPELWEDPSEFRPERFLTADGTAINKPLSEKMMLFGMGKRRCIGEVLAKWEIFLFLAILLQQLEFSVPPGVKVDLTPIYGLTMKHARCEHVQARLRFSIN

[3] = biological target: Alkaline phosphatase, placental type (Homo sapiens, UniProt P05187); assay: PLAP enzyme inhibitors, confirmation, biochemical, luminescence (AID 1512); assay type: functional
[4] = biological target: Delta-type opioid receptor (Homo sapiens, UniProt P41143); assay: Counterscreen for agonists of heterodimerization of the mu 1 (OPRM1) and delta 1 (OPRD1) opioid receptors: Luminescence-based cell-based high throughput dose response assay to identify agonists of OPRD1 homodimerization. [Related pubchem assays (depositor defined):AID504326, AID504355, AID504692, AID504904, AID504905]; assay type: functional
[5] = biological target: 5-hydroxytryptamine receptor 5A (Homo sapiens, UniProt P47898); assay: Counterscreen for agonists of OPRM1-OPRD1 heterodimerization: luminescence-based cell-based high throughput dose response assay to identify agonists of 5-hydroxytryptamine (serotonin) 5A receptor (HTR5A). [Related pubchem assays (depositor defined):AID504326, AID504355, AID504692, AID504904, AID504905]; assay type: functional
Mu-type opioid receptor = Mu-type opioid receptor (Homo sapiens, UniProt P35372); assay: Counterscreen for agonists of heterodimerization of the mu 1 (OPRM1) and delta 1 (OPRD1) opioid receptors: Luminescence-based cell-based high throughput dose response assay to identify agonists of OPRM1 homodimerization.; assay type: functional;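 also: U2OS cells expressing OPRM1 and beta-arrestin as split beta-galactosidase partners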
[6] = biological target: T4, Short transient receptor potential channel 4 (Mus musculus, UniProt Q9QUQ5); assay: mouse TRPC4 channel activators, dose response, cell-based, HEK293 TRPC4/mu-opioid, Fluo-4 calcium (AID 434937); assay type: functional
T4 sequence (Q9QUQ5 whole entry): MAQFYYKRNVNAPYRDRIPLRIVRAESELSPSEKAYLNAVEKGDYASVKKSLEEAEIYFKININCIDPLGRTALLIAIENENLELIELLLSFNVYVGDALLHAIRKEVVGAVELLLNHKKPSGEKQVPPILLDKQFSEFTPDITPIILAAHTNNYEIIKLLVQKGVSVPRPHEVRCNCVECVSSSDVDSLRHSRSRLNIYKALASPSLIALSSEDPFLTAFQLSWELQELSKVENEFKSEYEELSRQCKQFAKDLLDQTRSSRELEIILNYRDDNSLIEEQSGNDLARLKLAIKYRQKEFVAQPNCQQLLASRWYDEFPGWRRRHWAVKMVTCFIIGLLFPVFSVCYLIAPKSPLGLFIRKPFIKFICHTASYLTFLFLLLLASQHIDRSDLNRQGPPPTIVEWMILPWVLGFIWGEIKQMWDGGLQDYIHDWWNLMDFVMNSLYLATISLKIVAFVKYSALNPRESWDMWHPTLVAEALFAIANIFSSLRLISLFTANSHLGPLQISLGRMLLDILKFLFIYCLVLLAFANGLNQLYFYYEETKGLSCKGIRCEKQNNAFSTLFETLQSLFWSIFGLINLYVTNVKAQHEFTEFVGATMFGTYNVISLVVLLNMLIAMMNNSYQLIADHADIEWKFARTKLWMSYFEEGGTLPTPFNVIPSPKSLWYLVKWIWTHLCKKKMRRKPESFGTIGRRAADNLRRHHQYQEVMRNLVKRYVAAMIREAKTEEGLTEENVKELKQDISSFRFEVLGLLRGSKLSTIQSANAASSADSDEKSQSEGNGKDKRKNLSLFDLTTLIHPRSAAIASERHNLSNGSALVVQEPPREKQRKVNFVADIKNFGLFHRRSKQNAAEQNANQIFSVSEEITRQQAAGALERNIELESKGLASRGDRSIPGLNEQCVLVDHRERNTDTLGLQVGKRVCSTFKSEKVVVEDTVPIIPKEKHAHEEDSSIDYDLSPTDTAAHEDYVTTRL

Chain of Cytochrome P450 2C9 (P11712 whole entry): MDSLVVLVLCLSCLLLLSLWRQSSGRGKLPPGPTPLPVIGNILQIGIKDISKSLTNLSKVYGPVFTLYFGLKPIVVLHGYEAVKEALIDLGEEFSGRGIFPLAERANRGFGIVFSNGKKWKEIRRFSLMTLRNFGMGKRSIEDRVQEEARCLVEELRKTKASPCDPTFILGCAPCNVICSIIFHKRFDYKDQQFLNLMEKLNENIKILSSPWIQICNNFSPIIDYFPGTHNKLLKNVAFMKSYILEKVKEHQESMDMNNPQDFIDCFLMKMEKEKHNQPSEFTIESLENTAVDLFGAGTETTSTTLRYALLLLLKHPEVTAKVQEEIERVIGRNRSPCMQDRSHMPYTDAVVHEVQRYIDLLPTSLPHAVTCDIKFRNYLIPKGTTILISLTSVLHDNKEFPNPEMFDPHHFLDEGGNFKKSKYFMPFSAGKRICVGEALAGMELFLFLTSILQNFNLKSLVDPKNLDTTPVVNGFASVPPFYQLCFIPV
Chain of Cytochrome P450 2C19 (P33261 whole entry): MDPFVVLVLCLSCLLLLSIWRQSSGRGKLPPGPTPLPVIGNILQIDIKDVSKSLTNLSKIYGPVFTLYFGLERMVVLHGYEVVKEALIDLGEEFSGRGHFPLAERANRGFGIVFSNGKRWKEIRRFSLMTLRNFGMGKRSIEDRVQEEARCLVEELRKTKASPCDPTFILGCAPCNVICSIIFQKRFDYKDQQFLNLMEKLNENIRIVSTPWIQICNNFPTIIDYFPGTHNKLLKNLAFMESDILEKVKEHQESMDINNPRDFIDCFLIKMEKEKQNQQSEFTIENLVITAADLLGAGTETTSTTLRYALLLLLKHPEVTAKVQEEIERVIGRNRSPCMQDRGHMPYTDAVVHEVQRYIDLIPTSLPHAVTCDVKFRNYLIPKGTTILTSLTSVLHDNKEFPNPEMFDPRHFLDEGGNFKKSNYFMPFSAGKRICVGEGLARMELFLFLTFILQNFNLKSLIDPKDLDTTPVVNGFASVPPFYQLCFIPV
Chain of Mu-type opioid receptor (P35372 whole entry): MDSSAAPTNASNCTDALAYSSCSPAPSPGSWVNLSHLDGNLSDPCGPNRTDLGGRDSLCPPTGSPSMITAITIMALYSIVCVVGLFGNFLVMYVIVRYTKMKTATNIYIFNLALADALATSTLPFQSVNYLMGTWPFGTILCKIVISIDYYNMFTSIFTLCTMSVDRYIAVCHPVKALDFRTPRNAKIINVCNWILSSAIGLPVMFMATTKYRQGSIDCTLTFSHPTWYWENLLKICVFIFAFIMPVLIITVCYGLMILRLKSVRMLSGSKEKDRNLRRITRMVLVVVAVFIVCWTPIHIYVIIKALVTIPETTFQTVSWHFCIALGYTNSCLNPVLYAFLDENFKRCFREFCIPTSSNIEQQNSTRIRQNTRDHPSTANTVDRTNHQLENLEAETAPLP
Chain of 5-hydroxytryptamine receptor 5A (P47898 whole entry): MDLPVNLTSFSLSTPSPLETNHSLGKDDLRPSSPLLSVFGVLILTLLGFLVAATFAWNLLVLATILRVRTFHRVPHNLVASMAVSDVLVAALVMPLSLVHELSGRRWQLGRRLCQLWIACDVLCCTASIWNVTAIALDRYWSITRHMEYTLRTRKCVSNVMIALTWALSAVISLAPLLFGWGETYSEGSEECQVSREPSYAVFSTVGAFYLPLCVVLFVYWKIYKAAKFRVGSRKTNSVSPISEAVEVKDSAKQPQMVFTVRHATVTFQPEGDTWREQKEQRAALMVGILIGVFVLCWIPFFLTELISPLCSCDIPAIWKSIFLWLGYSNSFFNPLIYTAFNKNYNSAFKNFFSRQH
Chain of Paired box protein Pax-8 (Q06710 whole entry): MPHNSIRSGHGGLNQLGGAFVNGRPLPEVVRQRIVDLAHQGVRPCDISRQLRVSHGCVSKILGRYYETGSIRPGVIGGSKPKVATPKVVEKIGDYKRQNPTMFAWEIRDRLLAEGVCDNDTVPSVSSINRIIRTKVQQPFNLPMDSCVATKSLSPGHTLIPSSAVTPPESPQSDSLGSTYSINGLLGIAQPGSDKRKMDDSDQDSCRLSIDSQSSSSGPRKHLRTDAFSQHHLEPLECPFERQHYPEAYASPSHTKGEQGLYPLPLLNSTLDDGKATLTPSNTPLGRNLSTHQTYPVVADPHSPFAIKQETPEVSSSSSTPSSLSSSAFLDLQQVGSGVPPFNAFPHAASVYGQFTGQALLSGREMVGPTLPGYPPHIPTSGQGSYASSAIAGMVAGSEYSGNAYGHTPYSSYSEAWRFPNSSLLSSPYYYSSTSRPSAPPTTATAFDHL
Chain of Alkaline phosphatase, placental type (P05187 whole entry): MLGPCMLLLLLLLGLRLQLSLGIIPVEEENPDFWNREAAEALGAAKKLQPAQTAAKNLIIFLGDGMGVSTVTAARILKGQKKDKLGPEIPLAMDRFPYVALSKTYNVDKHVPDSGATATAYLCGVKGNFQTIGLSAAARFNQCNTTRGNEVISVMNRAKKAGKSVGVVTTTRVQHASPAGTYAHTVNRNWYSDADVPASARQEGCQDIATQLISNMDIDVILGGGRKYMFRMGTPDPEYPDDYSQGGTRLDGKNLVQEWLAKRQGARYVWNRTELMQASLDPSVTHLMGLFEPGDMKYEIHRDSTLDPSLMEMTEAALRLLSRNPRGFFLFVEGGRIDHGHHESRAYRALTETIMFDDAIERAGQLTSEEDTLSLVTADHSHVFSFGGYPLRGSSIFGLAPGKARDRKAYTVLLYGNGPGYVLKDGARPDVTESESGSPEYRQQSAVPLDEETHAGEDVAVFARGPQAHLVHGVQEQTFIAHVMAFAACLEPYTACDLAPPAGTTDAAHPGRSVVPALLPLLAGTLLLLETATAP
Chain of Delta-type opioid receptor (P41143 whole entry): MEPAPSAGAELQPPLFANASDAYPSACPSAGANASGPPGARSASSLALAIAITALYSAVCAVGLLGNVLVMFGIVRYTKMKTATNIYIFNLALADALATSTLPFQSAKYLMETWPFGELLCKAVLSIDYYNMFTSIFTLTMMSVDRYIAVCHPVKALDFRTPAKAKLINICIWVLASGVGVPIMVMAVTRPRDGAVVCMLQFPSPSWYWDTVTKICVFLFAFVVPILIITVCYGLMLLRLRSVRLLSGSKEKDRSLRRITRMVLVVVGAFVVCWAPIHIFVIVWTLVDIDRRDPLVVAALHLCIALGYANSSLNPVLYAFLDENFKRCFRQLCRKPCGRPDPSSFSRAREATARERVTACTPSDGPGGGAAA

SMILES: Cc1cc(C(=O)COC(=O)c2ccc[nH]c2=O)c(C)n1CCc1ccc(F)cc1
- IC50 (Leucine aminopeptidase): 18.2 µM (active)

SMILES: C[C@H](CO)N1C[C@H](C)[C@H](CN(C)S(=O)(=O)c2ccc(F)cc2)OCCCC[C@H](C)Oc2ccc(NS(=O)(=O)c3ccc(Cl)cc3)cc2C1=O
- AC50 [1]: 54.7 µM (active)
- AC50 (Paired box protein Pax-8): 10.1 µM (active)

SMILES: C[C@@H]1ON(C)[C@H]2C[C@H]3c4cc(-c5cc6ccccc6o5)ccc4CCN3C[C@@H]12
- AC50 [2]: 28.7 µM (active)

SMILES: CCOc1ccc(NC(=O)CSc2nnc(N)s2)c([N+](=O)[O-])c1
- IC50 (Leucine aminopeptidase): 2.52 µM (active)

SMILES: Cc1ccc(N(CC(N)=O)C2SC(=O)N(Cc3cccc(C(=O)O)c3)C2=O)cc1 (stereo unspecified)
- IC50 (Leucine aminopeptidase): 40.7 µM (active)
- AC50 (Cytochrome P450 2C19): 20 µM (inconclusive)
- AC50 (Cytochrome P450 2C9): 12.6 µM (inconclusive)
- AC50 (Cytochrome P450 1A2): 15.8 µM (inconclusive)

SMILES: Cc1ccc(-n2ncc3c(NNC(=O)c4ccco4)ncnc32)c(C)c1
- IC50 [3]: > 100 µM (inactive)

SMILES: CC1CN(C)C(C)c2c1oc1ccc(N)cc21 (stereo unspecified)
- AC50 [2]: 9.06 µM (active)
- EC50 [4]: > 92.5 µM (inactive)
- EC50 [5]: > 92.5 µM (inactive)
- EC50 (Mu-type opioid receptor): > 92.5 µM (inactive)
- EC50 [6]: 0.841 µM (active)

SMILES: CCOC(=O)C(CSCC(=O)c1ccc(Br)cc1)NC(=O)OC(C)(C)C (stereo unspecified)
- IC50 (Leucine aminopeptidase): 62.2 µM (active)
